Results reported in paper PMC10044725, “Antioxidant, Anti-Inflammatory and Anti-Diabetic Activities of Tectona grandis Methanolic Extracts, Fractions, and Isolated Compounds” (Antioxidants, 2023).
Marks after values point to notes of the source that are not given here.

Columns and labels:
BSA = assay: Prevention of AAPH-induced protein oxidative damage; set-up: species or system Bovine; details: AAPH 160 mM; residual BSA
Method: The protective activities of T. grandis methanolic extract, different fractions and its compounds 15 and 23 on protein oxidative damage were carried out using the method of Yang et al.. Initially, 20 μL BSA solutions (1 mg/mL) in PBS (0.1 M, pH 6.8) were mixed with different concentrations of fractions (40 μL) and compounds (40 μL) and incubated in water at 37 °C for 30 min. Then, 40 μL AAPH (160 mM) was added to the mixture and the reaction continued for 4 h. The control group used the same volume of PBS (0.1 M, pH 6.8) to replace AAPH. The pre-treated samples were added to 5 × SDS loading buffer and treated in water at 95 °C for 15 min. […] After electrophoresis, the gels were stained with Coomassie brilliant blue R-250 dye (0.25%, w/v), and then the gels were decolorized with the decolorizing solution. Finally, images were taken using the SDS-PAGE gel imaging system (ChampChemi 610, China) and the grayscale of Western blot was analyzed using Image J software.

[1] = DPPH free radical scavenging assay; details: isolated compounds; half scavenging concentration; read-out: DPPH Assay SC50
Method: The DPPH free radical scavenging activities of T. grandis methanolic extract, different fractions and its compounds were conducted according to Dr. Yang et al.. […] The absorbance was measured using a microplate reader at 517 nm, and ascorbic acid was used as a positive control. The DPPH scavenging activity was calculated according to the following formula: Scavenging activity (%) = [1 − (A1 − A2)/(A3 − A4)] × 100% (1) where A1 is the OD value of the tested samples, A2 is the OD value of the sample control, A3 is the OD value of the negative control and A4 is the OD value of the blank control. The analysis was performed in triplicates and the results were described as SC50 values.

[2] = Ferric reducing antioxidant power (FRAP) assay; details: compounds at 50 μM; Trolox equivalent
Method: The FRAP assay was determined in accordance with the instructions for the FRAP kit. The total antioxidant activity values were estimated using the Trolox equivalent antioxidant capacity test. Initially, the detection concentration of methanolic extract and different fractions was 80 μg/mL, and the detection concentration of compounds (1–23) was 50 μM. Then, 190 μL of FRAP working reagent was mixed with 10 μL sample and incubated at room temperature for 20 min. The absorbance was then measured using a microplate reader at 593 nm, and the scavenging activity was calculated according to Equation (3). The blank control group used DMSO to replace the sample. […] The analysis was performed in triplicates, 0.8054, 0.0134 was a constant.

EC50 [1]: 320 ± 70 nM
SMILES: O=C(O)c1cc(O)c(O)c(O)c1 [Compound 23, gallic acid]
concentration at which a protective effect against protein oxidative damage begins (BSA): 320 µM | FRAP Assay [2]: 1.03 ± 0.01 ^a mmol Trolox/L
